System: activated sludge
Experiment: Activated sludge SBR reactor, biological nitrogen removal with added AHLs signal molecule
Details: remaining steps as Example 1 (10° C.)

| Structure (SMILES) | ammonia-nitrogen removal efficiency (10 μg/L after addition) [%] | ammonia-nitrogen removal efficiency (100 μg/L after addition) [%] |
| --- | --- | --- |
| CCCCCCCC(=O)N[C@H]1CCOC1=O [C8-HSL, N-octanoyl-L-homoserine lactone] | 88.37 | 94.54 |
| CCCCCCCCCCCC(=O)N[C@H]1CCOC1=O [C12-HSL, N-dodecanoyl-L-homoserine lactone] | 90.79 | 80.95 |

Reference: patent publication US20240262727A1, “METHOD FOR IMPROVING BIOLOGICAL NITROGEN REMOVAL EFFECT OF LOW-TEMPERATURE SEWAGE” (Sichuan University, priority 2023, published 2024)
